Tests used:
Assay in all cases: Generic kinase assay (33P-ATP, Myelin Basic Protein)
Type in all cases: biochemical
PDGFR = settings: class symbol: % inhibition at 10 μM or IC50
Protocol: (§1) In order to determine the inhibitory effect of the compounds of the subject invention on various target enzymes a generic kinase assay was established.
(§2) Reactions were performed in 96-Well U-bottom microtiter plates (Greiner Bio-One; Frickenhausen/Germany, Cat. No. 650161), hereinafter designated “Assay Plates”. 10 μl of a solution comprising 40 μM Myelin Basic Protein (Invitrogen; Carlsbad, Calif./USA; Cat. No. 13228-010) and 4 μM ATP in three-fold concentrated Reaction Buffer (60 mM Tris-HCl, pH 7.5; 30 mM MgCl2; 3 mM dithiothreitol) were added into each well of the Assay Plate. 10 μl of serial dilutions of the compounds of the subject invention, dissolved in 4% DMSO, were then added into each well, except for Positive Control. Wells (C+ wells) and Negative Control Wells (C− wells). 10 μl of 4% DMSO without compounds were added to C+ and C− wells. 10 μl of a 500 mM solution of EDTA in water was then added to C− wells. Then 10 μl of a solution containing 50 μCi/ml Adenosine 5′-[γ-^33P]triphosphate in water was added to each well. To start the reaction 10 μl of the kinase to be assayed was added to each well. The optimal amount of kinase in the assay was determined to be the amount which yields to a turn-over of about 10% of ATP. Assay Plates were incubated for one hour at room temperature. Then 10 μl of a 500 mM solution of EDTA in water was added to each well except C− wells. Samples were now ready for measurement.
(§3) Measurements were preformed in 96-Well MAPH-Filter Plates (Millipore; Billerica, Mass./United States; Cat. No. MAPHNOB50), hereinafter designated “Measurement Plates”. Measurement Plates were washed with 200 μl of a 0.75% H3PO4 solution per well. The H3PO4 solution was exhausted using a Millipore vacuum station. 60 μl of a 0.75% H3PO4 solution was then added into each well, followed by the transfer of 30 μl of each well from the Assay Plate into the corresponding wells of the Measurement Plate. The Measurement Plate was incubated for 30 minutes at room temperature. Thereafter each well was washed three times with 200 μl of a 0.75% H3PO4 solution using a Millipore vacuum station. 20 μl of scintillation liquid (Supermix Liquid Szintillator; Perkin Elmer, Wellesley. Mass./United States; Cat. No. 1200-439) was then added to each well of the Measurement Plate. The plate was sealed and stored for 30 minutes in the darkness before radioactivity was quantified in a MicroBeta Scintillation Counter (Perkin Elmer, Wellesley. Mass./United States).

EGFR = EGFR (Homo sapiens, UniProt P00533); settings: class symbol: % inhibition at 10 μM or IC50
Protocol: as §1, §2, §3

IKKb = molecular target: T1, IKKb (Homo sapiens, UniProt O14920); settings: class symbol: % inhibition at 10 μM or IC50
T1 sequence (O14920 1-756): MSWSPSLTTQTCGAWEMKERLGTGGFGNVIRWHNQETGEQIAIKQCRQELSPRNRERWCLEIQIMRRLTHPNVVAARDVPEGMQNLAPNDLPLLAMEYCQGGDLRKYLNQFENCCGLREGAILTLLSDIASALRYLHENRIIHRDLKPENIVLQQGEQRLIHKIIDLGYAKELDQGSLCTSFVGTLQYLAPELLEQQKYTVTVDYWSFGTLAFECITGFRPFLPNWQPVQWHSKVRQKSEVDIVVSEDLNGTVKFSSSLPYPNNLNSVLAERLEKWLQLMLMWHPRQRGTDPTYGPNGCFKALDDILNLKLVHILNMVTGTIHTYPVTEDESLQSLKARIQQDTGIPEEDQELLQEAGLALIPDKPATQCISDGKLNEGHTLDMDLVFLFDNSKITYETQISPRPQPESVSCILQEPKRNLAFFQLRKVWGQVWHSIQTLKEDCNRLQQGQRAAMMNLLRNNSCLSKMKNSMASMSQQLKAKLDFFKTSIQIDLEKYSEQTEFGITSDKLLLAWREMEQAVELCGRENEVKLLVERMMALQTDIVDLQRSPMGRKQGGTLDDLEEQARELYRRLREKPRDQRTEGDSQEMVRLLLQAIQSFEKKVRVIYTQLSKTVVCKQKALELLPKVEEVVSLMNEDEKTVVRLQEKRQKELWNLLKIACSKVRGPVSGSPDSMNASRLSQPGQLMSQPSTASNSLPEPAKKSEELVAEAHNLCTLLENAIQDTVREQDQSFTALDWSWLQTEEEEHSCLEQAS
Protocol: as §1, §2, §3

RICK = RICK (Homo sapiens, UniProt O43353); settings: class symbol: % inhibition at 10 μM or IC50
Protocol: as §1, §2, §3

CDK1/CyclinB = CDK1/CyclinB (Homo sapiens, UniProt P06493); settings: class symbol: % inhibition at 10 μM or IC50
Protocol: as §1, §2, §3

cRaf = cRaf (Homo sapiens, UniProt P04049); settings: 1 h; class symbol: % inhibition at 10 μM or IC50; read-out: Inhibitory effect on target cRaf
Protocol: as §1, §2, §3

c-kit = c-kit (Homo sapiens, UniProt P10721); settings: 1 h; class symbol: % inhibition at 10 μM or IC50; read-out: Inhibitory effect on target c-kit
Protocol: as §1, §2, §3

p56Lck = p56Lck (Homo sapiens, UniProt P06239); settings: 1 h; class symbol: % inhibition at 10 μM or IC50; read-out: Inhibitory effect on target p56Lck
Protocol: as §1, §2, §3

Abl = Abl (Homo sapiens, UniProt P00519); settings: 1 h; class symbol: % inhibition at 10 μM or IC50; read-out: Inhibitory effect on target Abl
Protocol: as §1, §2, §3

p38 = p38 (Homo sapiens, UniProt Q16539); settings: class symbol: % inhibition at 10 μM or IC50
Protocol: as §1, §2, §3

UL97 = UL97 (Human cytomegalovirus, UniProt P16788); settings: class symbol: % inhibition at 10 μM or IC50
Protocol: as §1, §2, §3

ROCK 2 = ROCK 2 (Homo sapiens, UniProt O75116); settings: class symbol: % inhibition at 10 μM or IC50; for inhibition at 10 µM: 1 h, read-out: Inhibitory effect on target ROCK 2
Protocol: as §1, §2, §3

c-Src = c-Src (Homo sapiens, UniProt P12931); settings: class symbol: % inhibition at 10 μM or IC50
Protocol: as §1, §2, §3

CDK2/CyclinA = CDK2/CyclinA (Homo sapiens, UniProt P24941); settings: class symbol: % inhibition at 10 μM or IC50
Protocol: as §1, §2, §3

CDK5/p35 = CDK5/p35 (Homo sapiens, UniProt Q00535); settings: class symbol: % inhibition at 10 μM or IC50
Protocol: as §1, §2, §3

GSK-3beta = GSK-3beta (Homo sapiens, UniProt P49841); settings: class symbol: % inhibition at 10 μM or IC50
Protocol: as §1, §2, §3

Chain of EGFR (P00533 25-1210, species assumed): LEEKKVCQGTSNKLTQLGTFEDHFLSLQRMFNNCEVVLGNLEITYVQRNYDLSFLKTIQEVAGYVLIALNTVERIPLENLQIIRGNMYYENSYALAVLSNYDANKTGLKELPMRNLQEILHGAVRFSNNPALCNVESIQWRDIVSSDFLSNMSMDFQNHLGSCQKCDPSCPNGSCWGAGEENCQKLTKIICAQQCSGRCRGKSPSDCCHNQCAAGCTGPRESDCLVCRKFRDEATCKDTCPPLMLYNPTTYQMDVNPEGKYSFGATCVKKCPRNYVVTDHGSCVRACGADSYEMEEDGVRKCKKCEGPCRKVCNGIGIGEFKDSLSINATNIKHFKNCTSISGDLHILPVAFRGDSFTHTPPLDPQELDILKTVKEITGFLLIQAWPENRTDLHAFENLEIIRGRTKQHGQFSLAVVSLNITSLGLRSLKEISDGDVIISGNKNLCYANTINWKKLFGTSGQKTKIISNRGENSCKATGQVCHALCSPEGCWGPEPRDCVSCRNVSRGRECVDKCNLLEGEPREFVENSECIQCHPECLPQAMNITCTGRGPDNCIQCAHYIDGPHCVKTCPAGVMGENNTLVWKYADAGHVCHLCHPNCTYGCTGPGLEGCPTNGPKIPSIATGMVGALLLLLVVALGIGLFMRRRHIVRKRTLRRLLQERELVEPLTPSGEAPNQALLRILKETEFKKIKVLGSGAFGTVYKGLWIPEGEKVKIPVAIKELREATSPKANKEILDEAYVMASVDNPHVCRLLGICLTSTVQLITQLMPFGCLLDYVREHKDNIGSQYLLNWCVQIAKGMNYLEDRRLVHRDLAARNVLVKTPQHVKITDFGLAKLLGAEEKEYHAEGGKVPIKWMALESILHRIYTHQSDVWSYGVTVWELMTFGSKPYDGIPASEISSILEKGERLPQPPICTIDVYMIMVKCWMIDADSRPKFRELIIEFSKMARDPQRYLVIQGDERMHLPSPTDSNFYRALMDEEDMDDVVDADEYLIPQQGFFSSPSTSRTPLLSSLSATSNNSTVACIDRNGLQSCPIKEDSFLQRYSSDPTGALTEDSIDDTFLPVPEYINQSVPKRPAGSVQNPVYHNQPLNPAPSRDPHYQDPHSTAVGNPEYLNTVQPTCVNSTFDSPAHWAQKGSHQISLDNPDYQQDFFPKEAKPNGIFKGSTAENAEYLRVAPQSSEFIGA
Chain of CDK1/CyclinB (P06493 whole entry, species assumed): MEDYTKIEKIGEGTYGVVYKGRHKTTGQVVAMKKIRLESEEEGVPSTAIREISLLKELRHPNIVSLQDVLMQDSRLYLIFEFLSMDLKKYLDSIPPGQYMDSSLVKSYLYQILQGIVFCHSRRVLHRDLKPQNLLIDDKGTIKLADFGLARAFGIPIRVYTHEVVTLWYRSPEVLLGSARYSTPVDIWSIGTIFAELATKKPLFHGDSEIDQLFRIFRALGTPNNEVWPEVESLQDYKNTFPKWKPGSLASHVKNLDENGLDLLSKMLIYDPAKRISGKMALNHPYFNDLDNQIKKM
Chain of CDK1/CyclinB (P14635 whole entry partner, species assumed): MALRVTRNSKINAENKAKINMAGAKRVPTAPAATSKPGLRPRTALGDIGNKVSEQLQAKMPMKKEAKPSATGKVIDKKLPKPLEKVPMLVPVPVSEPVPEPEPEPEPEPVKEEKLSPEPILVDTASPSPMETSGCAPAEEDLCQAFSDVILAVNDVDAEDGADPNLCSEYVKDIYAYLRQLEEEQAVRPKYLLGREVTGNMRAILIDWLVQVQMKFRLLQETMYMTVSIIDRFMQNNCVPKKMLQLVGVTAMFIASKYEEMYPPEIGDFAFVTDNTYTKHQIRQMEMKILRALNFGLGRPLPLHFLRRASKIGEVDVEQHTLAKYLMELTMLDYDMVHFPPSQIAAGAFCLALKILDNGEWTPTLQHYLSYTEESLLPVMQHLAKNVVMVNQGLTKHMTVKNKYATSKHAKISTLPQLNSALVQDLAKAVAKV
Chain of ROCK 2 (O75116 whole entry, species assumed): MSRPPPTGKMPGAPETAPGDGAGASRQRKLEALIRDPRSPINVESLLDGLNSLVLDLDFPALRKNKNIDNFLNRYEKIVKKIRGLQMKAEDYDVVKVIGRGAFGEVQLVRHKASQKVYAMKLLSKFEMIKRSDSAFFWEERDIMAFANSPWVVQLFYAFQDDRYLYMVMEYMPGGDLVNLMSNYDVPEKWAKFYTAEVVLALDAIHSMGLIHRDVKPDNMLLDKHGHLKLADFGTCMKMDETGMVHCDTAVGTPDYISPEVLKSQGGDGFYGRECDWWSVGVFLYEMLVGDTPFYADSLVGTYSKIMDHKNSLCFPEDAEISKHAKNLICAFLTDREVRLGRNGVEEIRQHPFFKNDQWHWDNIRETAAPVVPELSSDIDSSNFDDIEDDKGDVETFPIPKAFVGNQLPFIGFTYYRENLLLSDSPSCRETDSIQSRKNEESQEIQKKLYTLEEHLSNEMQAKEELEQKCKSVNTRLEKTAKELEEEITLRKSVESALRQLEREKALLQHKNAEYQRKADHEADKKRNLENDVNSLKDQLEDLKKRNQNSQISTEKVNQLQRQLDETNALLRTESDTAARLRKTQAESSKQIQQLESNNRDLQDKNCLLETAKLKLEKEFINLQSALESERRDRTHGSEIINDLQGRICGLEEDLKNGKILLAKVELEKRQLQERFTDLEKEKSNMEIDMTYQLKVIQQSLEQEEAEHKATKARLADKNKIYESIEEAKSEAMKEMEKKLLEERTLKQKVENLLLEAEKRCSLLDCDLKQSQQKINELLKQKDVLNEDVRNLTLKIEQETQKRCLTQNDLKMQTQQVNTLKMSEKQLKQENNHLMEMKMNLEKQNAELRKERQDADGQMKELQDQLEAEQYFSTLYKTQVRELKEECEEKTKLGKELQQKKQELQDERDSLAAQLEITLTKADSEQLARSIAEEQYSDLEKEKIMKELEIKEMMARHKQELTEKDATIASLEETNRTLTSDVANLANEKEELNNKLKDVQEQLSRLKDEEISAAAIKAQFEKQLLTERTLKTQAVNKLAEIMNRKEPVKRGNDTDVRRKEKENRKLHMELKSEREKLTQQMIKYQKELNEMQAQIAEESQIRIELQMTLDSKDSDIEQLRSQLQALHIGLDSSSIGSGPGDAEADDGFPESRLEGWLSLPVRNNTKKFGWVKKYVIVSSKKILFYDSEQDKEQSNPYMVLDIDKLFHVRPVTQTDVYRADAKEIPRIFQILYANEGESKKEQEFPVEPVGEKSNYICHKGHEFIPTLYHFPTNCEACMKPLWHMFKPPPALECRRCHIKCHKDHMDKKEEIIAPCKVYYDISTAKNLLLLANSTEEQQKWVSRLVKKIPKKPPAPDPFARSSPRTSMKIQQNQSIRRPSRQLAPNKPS
Chain of cRaf (P04049 whole entry, species assumed): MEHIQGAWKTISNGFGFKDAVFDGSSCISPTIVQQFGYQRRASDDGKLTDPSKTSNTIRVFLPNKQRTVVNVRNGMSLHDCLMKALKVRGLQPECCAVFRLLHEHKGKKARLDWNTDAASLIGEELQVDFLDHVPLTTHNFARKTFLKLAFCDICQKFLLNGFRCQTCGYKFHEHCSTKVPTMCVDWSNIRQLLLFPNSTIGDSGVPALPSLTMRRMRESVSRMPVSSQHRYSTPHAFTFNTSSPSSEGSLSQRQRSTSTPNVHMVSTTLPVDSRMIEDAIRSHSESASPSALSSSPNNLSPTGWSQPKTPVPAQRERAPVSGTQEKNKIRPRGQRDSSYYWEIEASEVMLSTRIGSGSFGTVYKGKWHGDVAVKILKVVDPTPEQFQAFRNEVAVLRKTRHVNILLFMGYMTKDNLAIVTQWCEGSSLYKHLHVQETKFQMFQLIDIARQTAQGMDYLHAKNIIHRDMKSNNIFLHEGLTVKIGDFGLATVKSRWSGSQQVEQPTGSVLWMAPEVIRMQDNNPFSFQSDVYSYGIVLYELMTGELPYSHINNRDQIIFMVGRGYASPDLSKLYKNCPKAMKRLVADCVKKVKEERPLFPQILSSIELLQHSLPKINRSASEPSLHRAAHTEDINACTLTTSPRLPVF
Chain of Abl (P00519 whole entry, species assumed): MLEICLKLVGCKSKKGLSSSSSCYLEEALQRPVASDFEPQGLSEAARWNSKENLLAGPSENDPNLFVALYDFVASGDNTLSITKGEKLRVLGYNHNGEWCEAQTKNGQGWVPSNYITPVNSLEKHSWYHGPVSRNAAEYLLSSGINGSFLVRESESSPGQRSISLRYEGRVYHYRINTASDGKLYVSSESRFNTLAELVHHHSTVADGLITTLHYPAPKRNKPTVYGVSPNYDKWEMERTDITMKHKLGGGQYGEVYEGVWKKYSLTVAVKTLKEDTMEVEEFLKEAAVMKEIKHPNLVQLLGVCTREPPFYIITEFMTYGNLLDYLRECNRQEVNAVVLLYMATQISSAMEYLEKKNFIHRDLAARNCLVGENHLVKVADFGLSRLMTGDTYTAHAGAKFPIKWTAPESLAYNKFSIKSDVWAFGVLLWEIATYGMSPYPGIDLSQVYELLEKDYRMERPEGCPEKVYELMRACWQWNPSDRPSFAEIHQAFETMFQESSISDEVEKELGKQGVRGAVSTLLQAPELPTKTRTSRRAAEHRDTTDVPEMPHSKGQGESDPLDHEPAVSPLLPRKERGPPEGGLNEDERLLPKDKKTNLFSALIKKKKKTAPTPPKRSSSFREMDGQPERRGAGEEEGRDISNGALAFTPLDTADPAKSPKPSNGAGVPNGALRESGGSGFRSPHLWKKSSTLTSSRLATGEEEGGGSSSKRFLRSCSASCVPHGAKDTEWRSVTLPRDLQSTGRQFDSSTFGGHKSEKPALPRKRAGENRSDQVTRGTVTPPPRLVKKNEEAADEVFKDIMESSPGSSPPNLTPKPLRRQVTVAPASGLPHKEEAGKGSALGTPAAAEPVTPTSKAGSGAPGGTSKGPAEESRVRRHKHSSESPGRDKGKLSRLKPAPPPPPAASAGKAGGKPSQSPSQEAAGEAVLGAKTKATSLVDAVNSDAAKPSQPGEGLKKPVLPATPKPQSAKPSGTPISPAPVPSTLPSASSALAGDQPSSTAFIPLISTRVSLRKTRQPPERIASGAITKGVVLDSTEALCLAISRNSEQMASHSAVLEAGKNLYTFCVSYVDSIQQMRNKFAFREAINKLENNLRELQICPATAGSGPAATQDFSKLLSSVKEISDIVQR

Structure (SMILES)	Inhibitory effect on target RICK (RICK)	inhibition at 10 µM (cRaf) [%]	inhibition at 10 µM (c-kit) [%]	inhibition at 10 µM (p56Lck) [%]	inhibition at 10 µM (Abl) [%]	Inhibitory effect on target UL97 (UL97)	inhibition at 10 µM (ROCK 2) [%]	Inhibitory effect on target ROCK 2 (ROCK 2)	Inhibitory effect on target PDGFR (PDGFR)	Inhibitory effect on target EGFR (EGFR)	Inhibitory effect on target IKKb (IKKb)	Inhibitory effect on target CDK1/CyclinB (CDK1/CyclinB)	Inhibitory effect on target p38 (p38)	Inhibitory effect on target c-Src (c-Src)	Inhibitory effect on target CDK2/CyclinA (CDK2/CyclinA)	Inhibitory effect on target CDK5/p35 (CDK5/p35)	Inhibitory effect on target GSK-3beta (GSK-3beta)
CN(Cc1cccc(O)c1)c1cncc(-c2cccc(O)c2)c1 [Compound 241, 3-{5-[(3-Hydroxy-benzyl)-methyl-amino]-pyridin-3-yl}-phenol]	C (C: IC50 measured: <1 μM)	–	–	–	–	C (C: IC50 measured: <1 μM)	50 to 90	–	–	–	–	–	–	–	–	–	–
Nc1cccc(CNc2cncc(-c3cccc(O)c3)c2)c1 [Compound 245, 3-[5-(3-Amino-benzylamino)-pyridin-3-yl]-phenol]	C (C: IC50 measured: <1 μM)	50 to 90	–	–	–	C (C: IC50 measured: <1 μM)	–	–	–	–	–	–	–	–	–	–	–
COc1cccc(-c2cncc(NCc3cccc(O)c3)c2)c1 [Compound 239, 3-{[5-(3-Methoxy-phenyl)-pyridin-3-ylamino]-methyl}-phenol]	C (C: IC50 measured: <1 μM)	50 to 90	–	50 to 90	50 to 90	–	50 to 90	–	B (B: >90% inhibition at 10 μM enzyme concentration)	A (A: 50-90% inhibition at 10 μM enzyme concentration)	–	B (B: >90% inhibition at 10 μM enzyme concentration)	–	B (B: >90% inhibition at 10 μM enzyme concentration)	C (C: IC50 measured: <1 μM)	A (A: 50-90% inhibition at 10 μM enzyme concentration)	–
Oc1ccc(-c2cncc(NCc3cccc(O)c3)c2)cc1 [Compound 212, 3-{[5-(4-Hydroxy-phenyl)-pyridin-3-ylamino]-methyl}-phenol]	C (C: IC50 measured: <1 μM)	50 to 90	> 90	> 90	50 to 90	–	–	C (C: IC50 measured: <1 μM)	A (A: 50-90% inhibition at 10 μM enzyme concentration)	A (A: 50-90% inhibition at 10 μM enzyme concentration)	–	–	–	–	B (B: >90% inhibition at 10 μM enzyme concentration)	–	A (A: 50-90% inhibition at 10 μM enzyme concentration)
O=C(Nc1cncc(-c2cccc(O)c2)c1)c1cccc(O)c1 [Compound 234, 3-Hydroxy-N-[5-(3-hydroxy-phenyl)-pyridin-3-yl]-benzamide]	C (C: IC50 measured: <1 μM)	50 to 90	50 to 90	> 90	50 to 90	–	–	–	B (B: >90% inhibition at 10 μM enzyme concentration)	B (B: >90% inhibition at 10 μM enzyme concentration)	A (A: 50-90% inhibition at 10 μM enzyme concentration)	–	–	B (B: >90% inhibition at 10 μM enzyme concentration)	–	–	–

The next lines start with results.

Inhibitory effect on target RICK (RICK)	inhibition at 10 µM (cRaf) [%]	inhibition at 10 µM (c-kit) [%]	inhibition at 10 µM (p56Lck) [%]	inhibition at 10 µM (Abl) [%]	Inhibitory effect on target UL97 (UL97)	inhibition at 10 µM (ROCK 2) [%]	Inhibitory effect on target ROCK 2 (ROCK 2)	Structure (SMILES)	Inhibitory effect on target PDGFR (PDGFR)	Inhibitory effect on target EGFR (EGFR)	Inhibitory effect on target IKKb (IKKb)	Inhibitory effect on target CDK1/CyclinB (CDK1/CyclinB)	Inhibitory effect on target p38 (p38)	Inhibitory effect on target c-Src (c-Src)	Inhibitory effect on target CDK2/CyclinA (CDK2/CyclinA)	Inhibitory effect on target CDK5/p35 (CDK5/p35)	Inhibitory effect on target GSK-3beta (GSK-3beta)
C (C: IC50 measured: <1 μM)	–	–	–	–	–	–	–	CC(=O)Nc1cccc(-c2cncc(Nc3ccccc3F)c2)c1 [Compound 237, N-{3-[5-(2-Fluoro-phenylamino)-pyridin-3-yl]-phenyl}-acetamide]	A (A: 50-90% inhibition at 10 μM enzyme concentration)	A (A: 50-90% inhibition at 10 μM enzyme concentration)	A (A: 50-90% inhibition at 10 μM enzyme concentration)	A (A: 50-90% inhibition at 10 μM enzyme concentration)	–	–	–	–	–
C (C: IC50 measured: <1 μM)	50 to 90	> 90	> 90	50 to 90	–	–	–	CC(=O)Nc1cccc(-c2cncc(NCc3cccc(O)c3)c2)c1 [Compound 221, N-{3-[5-(3-Hydroxy-benzylamino)-pyridin-3-yl]-phenyl}-acetamide]	A (A: 50-90% inhibition at 10 μM enzyme concentration)	A (A: 50-90% inhibition at 10 μM enzyme concentration)	–	–	A (A: 50-90% inhibition at 10 μM enzyme concentration)	–	–	–	–
C (C: IC50 measured: <1 μM)	–	–	–	–	–	–	–	CC(=O)Nc1cccc(-c2cncc(Nc3ccc(C#N)cc3)c2)c1 [Compound 205, N-{3-[5-(4-Cyano-phenylamino)-pyridin-3-yl]-phenyl}-acetamide]	A (A: 50-90% inhibition at 10 μM enzyme concentration)	–	A (A: 50-90% inhibition at 10 μM enzyme concentration)	A (A: 50-90% inhibition at 10 μM enzyme concentration)	–	–	–	A (A: 50-90% inhibition at 10 μM enzyme concentration)	–

— patent US20090196912A1, “Pyridinylamines” (GPC Botech AG, priority 2004, published 2009)
